The source of these data is patent publication US4382923A, “Tetrapeptide acylhydrazides, their production and use” (Takeda Chemical Industries, Ltd., priority 1980, dated 1983).

One assay deals with Slc:ICR mice. Briefly: Phenylquinone writhing method. It counts as in vivo. Conditions: oral route; reference. How it is done:
Phenylquinone writhing method
The compound (I) of the present invention was administered orally or subcutaneously to Slc:ICR mice weighing 18-20 g. According to the method of E. Siegmund, R. Cadmus and G. Lu [Proc. Soc.Exp.Biol, Med. 95, 729 (1957)], 0.02% phenylquinone in 5% ethanol saline was injected intraperitoneally in a dose of 0.1 ml/10 g body weight 30 min. after administration of the compound (I). The frequency of abdominal writhing was then counted for 20 min. Analgesic effect was indicated by comparing test group with control group.
In general terms: An intraperitoneal irritant provokes the stretching counted in writhing tests.

For assay [1] the following is noted: direct intracerebral administration; cited from earlier work.
For assay [2] the following is noted: intravenous route; cited from earlier work.

As for `CN1CC[C@]23c4c5ccc(O)c4O[C@H]2[C@@H](O)C=C[C@H]3[C@H]1C5` [morphine], the “effective dose, analgesic activity (abdominal writhing)” value in the assay with Slc:ICR mice is reported as 2.5 mg/kg.

Consider H-Tyr-Gly-Gly-Phe-Leu-OH, for which, in assay [1], the morphinomimetic activity result is given as “show morphinomimetic activity”. Further, the analgesic effect entry in assay [2] is recorded as “do not produce analgesic effects”.

With “H-Tyr-Gly-Gly-Phe-Met-OH (H-YGGFM-OH) [enkephalin, pentapeptide isolated from the pig brain]”, the morphinomimetic activity entry in assay [1] is reported as “show morphinomimetic activity”. In addition, the analgesic effect entry in assay [2] was “do not produce analgesic effects”. As to “β-endorphin (YGGFMTSEKSQTPLVTLFKNAIIKNAYKKGE; Beta-endorphin; UniProt P01189 237-267, looked up) [polypeptide consisting of 31 amino acid moieties, peptide-type analgesic]”, in assay [2], the analgesic effect result was “overt analgesic action”.
